This passage reports Kd, stoichiometry N (NasS per NasT (2:2)) and stoichiometry N results from publication PMC3795266, “Nitrogen Oxyanion-dependent Dissociation of a Two-component Complex That Regulates Bacterial Nitrate Assimilation” (The Journal of Biological Chemistry, 2013).

For one assay, the target named is T1, NasS-NasT (Paracoccus denitrificans, UniProt A1BAH4).
T1 construct: gene Pden_4454; co-expressed from pET-24a/nasTS in E. coli BL21(DE3); N-terminal His6-tag on NasT (tag kept), NasS untagged; NasS ~42 kDa, NasT ~22 kDa; heterotetramer ~132 kDa (two NasS, two NasT); with Response regulator NasT, ANTAR domain-containing positive regulator
T1 sequence (A1BAH4 1-390): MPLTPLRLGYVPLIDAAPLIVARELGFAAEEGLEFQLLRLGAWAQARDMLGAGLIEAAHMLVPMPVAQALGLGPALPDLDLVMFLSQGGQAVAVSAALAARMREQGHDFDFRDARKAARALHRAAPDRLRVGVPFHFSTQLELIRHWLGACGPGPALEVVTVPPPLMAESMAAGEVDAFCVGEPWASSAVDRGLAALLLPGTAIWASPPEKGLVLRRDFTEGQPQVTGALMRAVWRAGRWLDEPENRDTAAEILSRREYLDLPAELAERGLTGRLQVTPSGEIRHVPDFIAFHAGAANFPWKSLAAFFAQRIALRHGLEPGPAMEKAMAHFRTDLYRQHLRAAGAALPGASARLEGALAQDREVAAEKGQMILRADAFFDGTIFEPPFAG
T1 sequence (A1BAH5 1-196 partner): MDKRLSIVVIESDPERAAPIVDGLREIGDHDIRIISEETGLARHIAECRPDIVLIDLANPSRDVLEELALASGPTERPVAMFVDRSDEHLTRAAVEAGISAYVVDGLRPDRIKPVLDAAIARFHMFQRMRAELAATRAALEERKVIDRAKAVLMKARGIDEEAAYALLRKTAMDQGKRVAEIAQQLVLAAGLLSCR
The assay is described as follows: intrinsic tryptophan fluorescence quench (ex […] nm, em […] nm). Format: binding. The following applies: read-out: KD^app.

Assay [1] addresses NasT (His-tagged recombinant P. denitrificans NasT) (Paracoccus denitrificans PD1222). The assay is described as follows: AUC; sedimentation equilibrium of the purified complex, no NO3-; 50 mM NaHEPES, 100 mM NaCl, pH 7.5; 7.5, 12 and 16 krpm; 10 uM protein; ideal one-component fit.
Assay [2] has the same target. The assay is described as follows: SEC; analytical Superdex 200 HR 10/30, equilibration buffer supplemented with 1 mM NO3-; fractions analysed by SDS-PAGE.

For the molecule `O=NO` [NO2^−], the Kd at NasS-NasT came to 94 ± 12 µM. Turning to `O=[N+]([O-])O` [NO3^−], the Kd on NasS-NasT worked out at 15 ± 2 µM.

Consider “NasS (recombinant P. denitrificans NasS) (natural protein)”, for which the stoichiometry N (NasS per NasT (2:2)) in assay [1] is 1. On to “NasT (His-tagged recombinant P. denitrificans NasT) (natural protein)”, for which the stoichiometry N in assay [2] was found to be 6 monomers.
